One experiment concerns L1210. Put plainly: Antiproliferative activity against mouse L1210 cells after 72 hrs by phosphatase assay. The experiment is classed as functional, cell-based. The following applies: L1210, 72 h.
The nature of experiment [1]: Cytotoxicity against human HCT116/VM46 cells assessed as reduction in cell viability after 72 hrs by phosphatase assay. In kind it is cell-based. The following applies: HCT-116/VM46, 72 h.
A further experiment concerns HCT-116. Put plainly: Antiproliferative activity against human HCT116 cells after 72 hrs by phosphatase assay. The experiment is classed as functional, cell-based. The settings on record: HCT-116, 72 h.

For orientation: IC50 means the concentration needed to halve the response being measured.

SMILES strings stand for the structures.

As to `CC[C@]1(NC(=O)c2ccc3ccccc3c2)C[C@H]2CN(CCc3c([nH]c4ccccc34)[C@@](C(=O)OC)(c3cc4c(cc3OC)N(C)[C@H]3[C@@](O)(C(=O)OC)[C@H](OC(C)=O)[C@]5(CC)C=CCN6CC[C@]43[C@@H]65)C2)C1`, the IC50 was 1.9 nM with L1210, 6.4 nM in experiment [1] and 2.3 nM with HCT-116.
For the molecule `CC[C@]1(NC(=O)c2ccc(C#N)c(C)c2)C[C@H]2CN(CCc3c([nH]c4ccccc34)[C@@](C(=O)OC)(c3cc4c(cc3OC)N(C)[C@H]3[C@@](O)(C(=O)OC)[C@H](OC(C)=O)[C@]5(CC)C=CCN6CC[C@]43[C@@H]65)C2)C1`, the figures for the IC50 (in the experiment with L1210; in experiment [1]; in the experiment with HCT-116) were 4.8 nM, 65 nM and 6.2 nM, respectively.
The like results for `CC[C@]1(NC(=O)c2ccc(NC(=O)OC(C)(C)C)cc2)C[C@H]2CN(CCc3c([nH]c4ccccc34)[C@@](C(=O)OC)(c3cc4c(cc3OC)N(C)[C@H]3[C@@](O)(C(=O)OC)[C@H](OC(C)=O)[C@]5(CC)C=CCN6CC[C@]43[C@@H]65)C2)C1` were, in that order, 0.3 nM, 30 nM and 0.3 nM.
`CC[C@]1(NS(=O)(=O)c2ccccc2[N+](=O)[O-])C[C@H]2CN(CCc3c([nH]c4ccccc34)[C@@](C(=O)OC)(c3cc4c(cc3OC)N(C)[C@H]3[C@@](O)(C(=O)OC)[C@H](OC(C)=O)[C@]5(CC)C=CCN6CC[C@]43[C@@H]65)C2)C1`: the IC50 was determined as 360 nM in the experiment on L1210, 440 nM in experiment [1] and 420 nM in the experiment on HCT-116.
For `CC[C@]1(NC(=O)c2ccc(OC)c(Br)c2)C[C@H]2CN(CCc3c([nH]c4ccccc34)[C@@](C(=O)OC)(c3cc4c(cc3OC)N(C)[C@H]3[C@@](O)(C(=O)OC)[C@H](OC(C)=O)[C@]5(CC)C=CCN6CC[C@]43[C@@H]65)C2)C1`, the results for the IC50 (in the experiment with L1210; in experiment [1]; in the experiment on HCT-116) were 5.1 nM, 40 nM and 6.2 nM, respectively.
With `CC[C@]1(NC(=O)c2ccc(NC(C)=O)cc2)C[C@H]2CN(CCc3c([nH]c4ccccc34)[C@@](C(=O)OC)(c3cc4c(cc3OC)N(C)[C@H]3[C@@](O)(C(=O)OC)[C@H](OC(C)=O)[C@]5(CC)C=CCN6CC[C@]43[C@@H]65)C2)C1`, the IC50 with L1210 worked out at 1.6 nM; in experiment [1] it was 55 nM; in the experiment with HCT-116 it was 0.8 nM.
`CC[C@]1(NC(=O)c2ccc(F)cc2)C[C@H]2CN(CCc3c([nH]c4ccccc34)[C@@](C(=O)OC)(c3cc4c(cc3OC)N(C)[C@H]3[C@@](O)(C(=O)OC)[C@H](OC(C)=O)[C@]5(CC)C=CCN6CC[C@]43[C@@H]65)C2)C1`: the figures for the IC50 (in the experiment on L1210; in experiment [1]; in the experiment with HCT-116) were 1.8 nM, 25 nM and 1.4 nM, respectively.
As to `CC[C@]1(NC(=O)c2cccc(Cl)c2)C[C@H]2CN(CCc3c([nH]c4ccccc34)[C@@](C(=O)OC)(c3cc4c(cc3OC)N(C)[C@H]3[C@@](O)(C(=O)OC)[C@H](OC(C)=O)[C@]5(CC)C=CCN6CC[C@]43[C@@H]65)C2)C1`, the IC50 in the experiment on L1210 came to 4.2 nM; in experiment [1] it was 20 nM; in the experiment on HCT-116 it was 2.7 nM.
Regarding `CC[C@]1(NC(=O)c2cccnc2)C[C@H]2CN(CCc3c([nH]c4ccccc34)[C@@](C(=O)OC)(c3cc4c(cc3OC)N(C)[C@H]3[C@@](O)(C(=O)OC)[C@H](OC(C)=O)[C@]5(CC)C=CCN6CC[C@]43[C@@H]65)C2)C1`, the IC50 in the experiment on L1210 turned out to be 0.7 nM; in experiment [1], 50 nM; in the experiment on HCT-116, 0.6 nM.
In the case of `CC[C@]1(NC(=O)c2cccc(C)c2)C[C@H]2CN(CCc3c([nH]c4ccccc34)[C@@](C(=O)OC)(c3cc4c(cc3OC)N(C)[C@H]3[C@@](O)(C(=O)OC)[C@H](OC(C)=O)[C@]5(CC)C=CCN6CC[C@]43[C@@H]65)C2)C1`, the IC50 in the experiment with L1210 was 0.5 nM; in experiment [1], 3 nM; in the experiment with HCT-116, 0.7 nM.
For the molecule `CC[C@]1(NC(=O)c2ccc(OC(C)C)cc2)C[C@H]2CN(CCc3c([nH]c4ccccc34)[C@@](C(=O)OC)(c3cc4c(cc3OC)N(C)[C@H]3[C@@](O)(C(=O)OC)[C@H](OC(C)=O)[C@]5(CC)C=CCN6CC[C@]43[C@@H]65)C2)C1`, the figures for the concentration for half-maximal inhibition (IC50) (with L1210; in experiment [1]; in the experiment on HCT-116) were 0.7 nM, 6.6 nM and 0.8 nM, respectively.
The like results for `CC[C@]1(NC(=O)/C=C/c2cccnc2)C[C@H]2CN(CCc3c([nH]c4ccccc34)[C@@](C(=O)OC)(c3cc4c(cc3OC)N(C)[C@H]3[C@@](O)(C(=O)OC)[C@H](OC(C)=O)[C@]5(CC)C=CCN6CC[C@]43[C@@H]65)C2)C1` were, in that order, 5.9 nM, 320 nM and 5.7 nM.
In the same order, the values of `CC[C@]1(NC(=O)c2ccc(Br)cc2)C[C@H]2CN(CCc3c([nH]c4ccccc34)[C@@](C(=O)OC)(c3cc4c(cc3OC)N(C)[C@H]3[C@@](O)(C(=O)OC)[C@H](OC(C)=O)[C@]5(CC)C=CCN6CC[C@]43[C@@H]65)C2)C1` are 2.7 nM, 10 nM and 1.4 nM.
Turning to `CC[C@]1(NC(=O)c2ccc(Br)c(Br)c2)C[C@H]2CN(CCc3c([nH]c4ccccc34)[C@@](C(=O)OC)(c3cc4c(cc3OC)N(C)[C@H]3[C@@](O)(C(=O)OC)[C@H](OC(C)=O)[C@]5(CC)C=CCN6CC[C@]43[C@@H]65)C2)C1`, the IC50 in the experiment on L1210 was determined as 60 nM; in experiment [1] it was 80 nM; in the experiment with HCT-116, 40 nM.
`CC[C@]1(NC(=O)c2cncn2C)C[C@H]2CN(CCc3c([nH]c4ccccc34)[C@@](C(=O)OC)(c3cc4c(cc3OC)N(C)[C@H]3[C@@](O)(C(=O)OC)[C@H](OC(C)=O)[C@]5(CC)C=CCN6CC[C@]43[C@@H]65)C2)C1`: the IC50 came to 4 nM in the experiment on L1210, 80 nM in experiment [1] and 2.2 nM with HCT-116.
For the molecule `CC[C@]1(NC(=O)c2ccc(NS(C)(=O)=O)cc2)C[C@H]2CN(CCc3c([nH]c4ccccc34)[C@@](C(=O)OC)(c3cc4c(cc3OC)N(C)[C@H]3[C@@](O)(C(=O)OC)[C@H](OC(C)=O)[C@]5(CC)C=CCN6CC[C@]43[C@@H]65)C2)C1`, the figures for the IC50 (with L1210; in experiment [1]; in the experiment on HCT-116) were 0.4 nM, 50 nM and 0.3 nM, respectively.
In the same order, the values of `CC[C@]1(NC(=O)c2ccc(N)c(C)c2)C[C@H]2CN(CCc3c([nH]c4ccccc34)[C@@](C(=O)OC)(c3cc4c(cc3OC)N(C)[C@H]3[C@@](O)(C(=O)OC)[C@H](OC(C)=O)[C@]5(CC)C=CCN6CC[C@]43[C@@H]65)C2)C1` are 0.6 nM, 7.8 nM and 0.6 nM.
The like results for `CC[C@]1(NC(=O)c2ccc(OC(F)(F)F)c(OC)c2)C[C@H]2CN(CCc3c([nH]c4ccccc34)[C@@](C(=O)OC)(c3cc4c(cc3OC)N(C)[C@H]3[C@@](O)(C(=O)OC)[C@H](OC(C)=O)[C@]5(CC)C=CCN6CC[C@]43[C@@H]65)C2)C1` were, in that order, 1.3 nM, 6.9 nM and 1.7 nM.
With `CCC(C)c1ccc(C(=O)N[C@@]2(CC)C[C@H]3CN(CCc4c([nH]c5ccccc45)[C@@](C(=O)OC)(c4cc5c(cc4OC)N(C)[C@H]4[C@@](O)(C(=O)OC)[C@H](OC(C)=O)[C@]6(CC)C=CCN7CC[C@]54[C@@H]76)C3)C2)cc1` (stereo not given in full), the IC50 came to 25 nM in the experiment with L1210, 65 nM in experiment [1] and 15 nM with HCT-116.
Regarding `CC[C@]1(NC(=O)c2ccc(Cl)c(Cl)c2)C[C@H]2CN(CCc3c([nH]c4ccccc34)[C@@](C(=O)OC)(c3cc4c(cc3OC)N(C)[C@H]3[C@@](O)(C(=O)OC)[C@H](OC(C)=O)[C@]5(CC)C=CCN6CC[C@]43[C@@H]65)C2)C1`, the figures for the IC50 (in the experiment on L1210; in experiment [1]; with HCT-116) were 8.5 nM, 80 nM and 8.7 nM, respectively.
Take `CC[C@]1(NC(=O)C2CCCC2)C[C@H]2CN(CCc3c([nH]c4ccccc34)[C@@](C(=O)OC)(c3cc4c(cc3OC)N(C)[C@H]3[C@@](O)(C(=O)OC)[C@H](OC(C)=O)[C@]5(CC)C=CCN6CC[C@]43[C@@H]65)C2)C1`: the figures for the IC50 (with L1210; in experiment [1]; in the experiment on HCT-116) were 30 nM, 380 nM and 25 nM, respectively.
For the molecule `CC[C@]1(NC(=O)c2ccc(C)c(NC(=O)c3ccccc3)c2)C[C@H]2CN(CCc3c([nH]c4ccccc34)[C@@](C(=O)OC)(c3cc4c(cc3OC)N(C)[C@H]3[C@@](O)(C(=O)OC)[C@H](OC(C)=O)[C@]5(CC)C=CCN6CC[C@]43[C@@H]65)C2)C1`, the results for the IC50 (in the experiment on L1210; in experiment [1]; in the experiment with HCT-116) were 30 nM, 240 nM and 7.6 nM, respectively.
In the case of `CCCc1ccc(C(=O)N[C@@]2(CC)C[C@H]3CN(CCc4c([nH]c5ccccc45)[C@@](C(=O)OC)(c4cc5c(cc4OC)N(C)[C@H]4[C@@](O)(C(=O)OC)[C@H](OC(C)=O)[C@]6(CC)C=CCN7CC[C@]54[C@@H]76)C3)C2)cc1`, the IC50 worked out at 4.3 nM with L1210, 35 nM in experiment [1] and 4.8 nM in the experiment on HCT-116.
For `CC[C@]1(NC(=O)/C=C/c2ccccn2)C[C@H]2CN(CCc3c([nH]c4ccccc34)[C@@](C(=O)OC)(c3cc4c(cc3OC)N(C)[C@H]3[C@@](O)(C(=O)OC)[C@H](OC(C)=O)[C@]5(CC)C=CCN6CC[C@]43[C@@H]65)C2)C1`, the IC50 in the experiment on L1210 was 0.7 nM; in experiment [1] it was 25 nM; with HCT-116, 0.7 nM.
For `CC[C@@H]1C[C@H]2CN(CCc3c([nH]c4ccccc34)[C@@](C(=O)OC)(c3cc4c(cc3OC)N(C)[C@H]3[C@@](O)(C(=O)OC)[C@H](OC(C)=O)[C@]5(CC)C=CCN6CC[C@]43[C@@H]65)C2)C1` [ROSEAMINE], in experiment [1], the IC50 amounted to 600 nM.
Take `CC[C@]1(N)C[C@H]2CN(CCc3c([nH]c4ccccc34)[C@@](C(=O)OC)(c3cc4c(cc3OC)N(C)[C@H]3[C@@](O)(C(=O)OC)[C@H](OC(C)=O)[C@]5(CC)C=CCN6CC[C@]43[C@@H]65)C2)C1`: the IC50 in experiment [1] is more than 10000 nM.
With `CC[C@]1(N=[N+]=[N-])C[C@H]2CN(CCc3c([nH]c4ccccc34)[C@@](C(=O)OC)(c3cc4c(cc3OC)N(C)[C@H]3[C@@](O)(C(=O)OC)[C@H](OC(C)=O)[C@]5(CC)C=CCN6CC[C@]43[C@@H]65)C2)C1`, the IC50 in experiment [1] was determined as 5500 nM.

(Values after ChEMBL document CHEMBL4017512 (J Med Chem, 2017).)
